Data on 6 compounds can be found in US10093713B2, “GIP-GLP-1 dual agonist compounds and methods” (priority 2013, dated 2018).

Where two headings read alike, the source gives them in different places. *1 amine or outer side, *2 acyl side, *3 side chain or, on linkers, in order; H or OH if unused. Where a SMILES comes first, the peptide text is derived from it. Side-chain parts run from the residue outwards. [ ]: non-standard residue; d: D form. The star is where a group is joined. C18 diacid = O=C(O)CCCCCCCCCCCCCCCCC(=O)*; γGlu = O=C(O)[C@H](CCC(=O)[*:2])N[*:1]; AEEA = NCCOCCOCC(=O)O; Aib = CC(C)(N)C(=O)O

One test deals with T1, human GIP R (Homo sapiens, UniProt P48546).
T1 construct: expressed in transfected cells
T1 sequence (P48546 22-466): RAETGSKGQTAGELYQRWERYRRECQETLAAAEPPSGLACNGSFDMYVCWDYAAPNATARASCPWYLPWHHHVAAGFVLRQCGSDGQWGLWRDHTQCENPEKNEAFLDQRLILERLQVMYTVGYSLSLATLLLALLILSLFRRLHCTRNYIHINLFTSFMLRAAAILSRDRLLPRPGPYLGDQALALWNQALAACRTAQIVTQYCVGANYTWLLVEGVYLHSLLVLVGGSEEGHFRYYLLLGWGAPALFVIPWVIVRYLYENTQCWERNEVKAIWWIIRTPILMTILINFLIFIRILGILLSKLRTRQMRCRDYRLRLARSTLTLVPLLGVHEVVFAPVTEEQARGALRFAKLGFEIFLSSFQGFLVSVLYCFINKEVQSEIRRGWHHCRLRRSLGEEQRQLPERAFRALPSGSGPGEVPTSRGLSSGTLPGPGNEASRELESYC
Kind of test: Human GIP receptor (GIP R) activity assay, cAMP induction (AlphaScreen) in HEK293 cells. In kind it is cell-based. The procedure, abridged: (§1)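 Stable HEK293 clones expressing human GIP R or GLP-1 R, seeded 1 day before; cells washed in Tyrode's buffer (10 mM HEPES, pH 7.4), stimulated, then lysed. cAMP measured by AlphaScreen bead competition (1 h, room temperature, dark). EC50 = concentration giving half-maximal cAMP elevation, from curves of absolute cAMP (nM) vs log concentration.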

In a further test the target is T2, human GLP-1 R (Homo sapiens, UniProt P43220).
T2 construct: expressed in transfected cells
T2 sequence (P43220 24-463): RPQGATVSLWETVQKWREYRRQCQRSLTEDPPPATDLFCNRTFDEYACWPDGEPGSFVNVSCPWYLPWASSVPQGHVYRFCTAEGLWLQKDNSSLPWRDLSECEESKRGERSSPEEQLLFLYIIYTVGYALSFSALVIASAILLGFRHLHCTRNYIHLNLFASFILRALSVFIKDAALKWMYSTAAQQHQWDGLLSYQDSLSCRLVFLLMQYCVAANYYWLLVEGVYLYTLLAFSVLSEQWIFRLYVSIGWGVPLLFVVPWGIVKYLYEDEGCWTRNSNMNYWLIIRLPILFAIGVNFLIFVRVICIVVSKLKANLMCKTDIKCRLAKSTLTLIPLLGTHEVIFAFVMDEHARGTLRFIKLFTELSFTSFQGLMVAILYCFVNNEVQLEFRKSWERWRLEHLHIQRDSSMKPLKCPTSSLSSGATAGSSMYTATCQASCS
Kind of test: Human GLP-1 receptor (GLP-1 R) activity assay, cAMP induction (AlphaScreen) in HEK293 cells. In kind it is cell-based. The procedure, abridged:
as §1

Setting [1] is: Table 2a, secondary assay study, read-out: hGIP-R cAMP EC50 average value.
Setting [2] is: Table 2a, secondary assay study, read-out: hGLP1-R cAMP EC50 average value.
Setting [3] is: Table 2, HEK293 cells expressing human GIP R, read-out: hGIP-R cAMP EC50 average value.
Setting [4] is: Table 3, most comprehensive data, read-out: hGIP-R cAMP EC50 average value.
The mark [5] stands for this setting: Table 2, HEK293 cells expressing human GLP-1 R, read-out: hGLP1-R cAMP EC50 average value.

For the compound `CC[C@H](C)[C@H](NC(=O)[C@H](CO)NC(=O)[C@H](Cc1ccc(O)cc1)NC(=O)[C@H](CC(=O)O)NC(=O)[C@H](CO)NC(=O)[C@@H](NC(=O)[C@H](Cc1ccccc1)NC(=O)[C@@H](NC(=O)CNC(=O)[C@H](CCC(=O)O)NC(=O)C(C)(C)NC(=O)[C@@H](N)Cc1ccc(O)cc1)[C@@H](C)O)[C@@H](C)O)C(=O)N[C@@H](Cc1ccc(O)cc1)C(=O)N[C@@H](CC(C)C)C(=O)N[C@@H](CCC(=O)O)C(=O)N[C@@H](CCCCN)C(=O)N[C@@H](CCCCNC(=O)COCCOCCNC(=O)COCCOCCNC(=O)CC[C@H](NC(=O)CCCCCCCCCCCCCCCCC(=O)O)C(=O)O)C(=O)N[C@@H](C)C(=O)N[C@@H](CCC(N)=O)C(=O)N[C@@H](CCCNC(=N)N)C(=O)N[C@@H](C)C(=O)N[C@@H](Cc1ccccc1)C(=O)N[C@H](C(=O)N[C@@H](CCC(=O)O)C(=O)N[C@@H](Cc1c[nH]c2ccccc12)C(=O)N[C@@H](CC(C)C)C(=O)N[C@@H](CC(C)C)C(=O)N[C@@H](CCCNC(=N)N)C(=O)N[C@@H](C)C(N)=O)C(C)C` [Compound 19] (H-Y[Aib]EGTFTSDYSIYLEKK([AEEA-AEEA-γGlu-C18 diacid])AQRAFVEWLLRA-NH2), the figures for the EC50 on human GIP R (setting [1]) and on human GLP-1 R (setting [2]) were 0.014 nM and 0.022 nM, respectively.

On to `CC[C@H](C)[C@H](NC(=O)[C@H](CO)NC(=O)[C@H](CC(C)C)NC(=O)[C@H](CC(=O)O)NC(=O)[C@H](CO)NC(=O)[C@@H](NC(=O)[C@H](Cc1ccccc1)NC(=O)[C@@H](NC(=O)CNC(=O)[C@H](CCC(=O)O)NC(=O)C(C)(C)NC(=O)[C@@H](N)Cc1ccc(O)cc1)[C@@H](C)O)[C@@H](C)O)C(=O)N[C@@H](C)C(=O)N[C@@H](CC(C)C)C(=O)N[C@@H](CC(=O)O)C(=O)N[C@@H](CCCCN)C(=O)N[C@@H](CCCCNC(=O)COCCOCCNC(=O)COCCOCCNC(=O)CC[C@H](NC(=O)CCCCCCCCCCCCCCCCC(=O)O)C(=O)O)C(=O)N[C@@H](C)C(=O)N[C@@H](CCC(N)=O)C(=O)N[C@@H](CCCNC(=N)N)C(=O)N[C@@H](C)C(=O)N[C@@H](Cc1ccccc1)C(=O)N[C@H](C(=O)N[C@@H](CC(N)=O)C(=O)N[C@@H](Cc1c[nH]c2ccccc12)C(=O)N[C@@H](CC(C)C)C(=O)N[C@H](C(=O)N[C@@H](C)C(=O)NC(C)(C)C(=O)N[C@@H](CCCCN)C(N)=O)C(C)C)C(C)C` [Compound 20], for which the EC50 – broadly, the concentration at which the effect is half-maximal – at human GIP R (hGIP-R cAMP EC50 average value, Table 2, HEK293 cells expressing human GIP R) was found to be 0.0097 nM; at human GLP-1 R, 0.011 nM.

Turning to `CC[C@H](C)[C@H](NC(=O)[C@H](CO)NC(=O)[C@H](CC(C)C)NC(=O)[C@H](CC(=O)O)NC(=O)[C@H](CO)NC(=O)[C@@H](NC(=O)[C@H](Cc1ccccc1)NC(=O)[C@@H](NC(=O)CNC(=O)[C@H](CCC(=O)O)NC(=O)C(C)(C)NC(=O)[C@@H](N)Cc1ccc(O)cc1)[C@@H](C)O)[C@@H](C)O)C(=O)N[C@@H](C)C(=O)N[C@@H](CC(C)C)C(=O)N[C@@H](CC(=O)O)C(=O)N[C@@H](CCCCN)C(=O)N[C@@H](CCCCNC(=O)COCCOCCNC(=O)COCCOCCNC(=O)CC[C@H](NC(=O)CCCCCCCCCCCCCCCCC(=O)O)C(=O)O)C(=O)N[C@@H](C)C(=O)N[C@@H](CCC(N)=O)C(=O)N[C@@H](CCCNC(=N)N)C(=O)N[C@@H](C)C(=O)N[C@@H](Cc1ccccc1)C(=O)N[C@H](C(=O)N[C@@H](CC(N)=O)C(=O)N[C@@H](Cc1c[nH]c2ccccc12)C(=O)N[C@@H](CC(C)C)C(=O)N[C@H](C(=O)N[C@@H](C)C(=O)NC(C)(C)C(=O)N[C@@H](CCCCN)C(N)=O)C(C)C)C(C)C` [Compound 21], the EC50 at human GIP R (setting [1]) and on human GLP-1 R (setting [2]) was 0.01 nM in each case.

For `CC[C@H](C)[C@H](NC(=O)[C@H](CO)NC(=O)[C@H](Cc1ccc(O)cc1)NC(=O)[C@H](CC(=O)O)NC(=O)[C@H](CO)NC(=O)[C@@H](NC(=O)[C@H](Cc1ccccc1)NC(=O)[C@@H](NC(=O)CNC(=O)[C@H](CCC(=O)O)NC(=O)C(C)(C)NC(=O)[C@@H](N)Cc1ccc(O)cc1)[C@@H](C)O)[C@@H](C)O)C(=O)N[C@@H](C)C(=O)N[C@@H](CC(C)C)C(=O)N[C@@H](CC(=O)O)C(=O)N[C@@H](CCCCN)C(=O)N[C@@H](CCCCNC(=O)COCCOCCNC(=O)COCCOCCNC(=O)CC[C@H](NC(=O)CCCCCCCCCCCCCCCCC(=O)O)C(=O)O)C(=O)N[C@@H](C)C(=O)N[C@@H](CCC(N)=O)C(=O)N[C@@H](CCCNC(=N)N)C(=O)N[C@@H](C)C(=O)N[C@@H](Cc1ccccc1)C(=O)N[C@H](C(=O)N[C@@H](CCC(=O)O)C(=O)N[C@@H](Cc1c[nH]c2ccccc12)C(=O)N[C@@H](CC(C)C)C(=O)N[C@H](C(=O)N[C@@H](C)C(=O)NC(C)(C)C(=O)N[C@@H](CCCCN)C(N)=O)C(C)C)C(C)C` [Compound 21] (H-Y[Aib]EGTFTSDYSIALDKK([AEEA-AEEA-γGlu-C18 diacid])AQRAFVEWLVA[Aib]K-NH2), the figures for the EC50 at human GIP R (setting [3]), at human GIP R (setting [4]) and on human GLP-1 R (setting [5]) were 0.0068 nM, 0.007 nM and 0.011 nM, respectively.

In the case of `CC[C@H](C)[C@H](NC(=O)[C@H](CO)NC(=O)[C@H](Cc1ccc(O)cc1)NC(=O)[C@H](CC(=O)O)NC(=O)[C@H](CO)NC(=O)[C@@H](NC(=O)[C@H](Cc1ccccc1)NC(=O)[C@@H](NC(=O)CNC(=O)[C@H](CCC(=O)O)NC(=O)C(C)(C)NC(=O)[C@@H](N)Cc1ccc(O)cc1)[C@@H](C)O)[C@@H](C)O)C(=O)N[C@@H](C)C(=O)N[C@@H](CC(C)C)C(=O)N[C@@H](CCC(=O)O)C(=O)N[C@@H](CCCCN)C(=O)N[C@@H](CCCCNC(=O)COCCOCCNC(=O)COCCOCCNC(=O)CC[C@H](NC(=O)CCCCCCCCCCCCCCCCC(=O)O)C(=O)O)C(=O)N[C@@H](C)C(=O)N[C@@H](CCC(N)=O)C(=O)N[C@@H](CCCNC(=N)N)C(=O)N[C@@H](C)C(=O)N[C@@H](Cc1ccccc1)C(=O)N[C@H](C(=O)N[C@@H](CCC(=O)O)C(=O)N[C@@H](Cc1c[nH]c2ccccc12)C(=O)N[C@@H](CC(C)C)C(=O)N[C@@H](CCC(=O)O)C(=O)N[C@@H](C)C(=O)N[C@@H](CCC(N)=O)C(=O)NCC(=O)N1CCC[C@H]1C(=O)N[C@@H](CO)C(=O)N[C@@H](CO)C(=O)NCC(=O)N[C@@H](C)C(=O)N1CCC[C@H]1C(=O)N1CCC[C@H]1C(=O)N1CCC[C@H]1C(=O)N[C@@H](CO)C(N)=O)C(C)C` [Compound 22] (H-Y[Aib]EGTFTSDYSIALEKK([AEEA-AEEA-γGlu-C18 diacid])AQRAFVEWLEAQGPSSGAPPPS-NH2), the EC50 at human GIP R (setting [3]) was 0.06 nM; on human GIP R (setting [4]), 0.06 nM; on human GLP-1 R (setting [5]) it was 0.061 nM; at human GLP-1 R (Table 3, most comprehensive data, read-out: hGLP-1-R cAMP EC50 average value), 0.061 nM.

Turning to `CC[C@H](C)[C@H](NC(=O)[C@H](CO)NC(=O)[C@H](Cc1ccc(O)cc1)NC(=O)[C@H](CC(=O)O)NC(=O)[C@H](CO)NC(=O)[C@@H](NC(=O)[C@H](Cc1ccccc1)NC(=O)[C@@H](NC(=O)CNC(=O)[C@H](CCC(=O)O)NC(=O)C(C)(C)NC(=O)[C@@H](N)Cc1ccc(O)cc1)[C@@H](C)O)[C@@H](C)O)C(=O)N[C@@H](C)C(=O)N[C@@H](CC(C)C)C(=O)N[C@@H](CCC(=O)O)C(=O)N[C@@H](CCCCN)C(=O)N[C@@H](CCCCNC(=O)COCCOCCNC(=O)COCCOCCNC(=O)CC[C@H](NC(=O)CCCCCCCCCCCCCCCCC(=O)O)C(=O)O)C(=O)N[C@@H](C)C(=O)N[C@@H](CCC(N)=O)C(=O)N[C@@H](CCCNC(=N)N)C(=O)N[C@@H](C)C(=O)N[C@@H](Cc1ccccc1)C(=O)N[C@H](C(=O)N[C@@H](CCC(=O)O)C(=O)N[C@@H](Cc1c[nH]c2ccccc12)C(=O)N[C@@H](CC(C)C)C(=O)N[C@@H](CCC(=O)O)C(=O)N[C@@H](C)C(=O)N[C@@H](CCC(N)=O)C(=O)N[C@@H](CCCCN)C(N)=O)C(C)C` [Compound 23] (H-Y[Aib]EGTFTSDYSIALEKK([AEEA-AEEA-γGlu-C18 diacid])AQRAFVEWLEAQK-NH2), the EC50 at human GIP R (setting [3]) came to 0.2 nM; on human GIP R (setting [4]) it was 0.2 nM; on human GLP-1 R (setting [5]), 0.044 nM.
